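Assay format: 96-well plates, 48-hour exposure. TGI: concentration producing complete growth inhibition.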
What was measured:
Test in all cases: NCI anticancer screen, dose series, 48 h
[1] = test system: IGROV1 ovarian
[2] = test system: HS 578T breast
[3] = test system: RXF 393 renal
[4] = test system: SK-OV-3 ovarian
[5] = test system: MDA-MB-435
[6] = test system: TK-10 renal
[7] = test system: OVCAR-5 ovarian
[8] = test system: SR leukemia
[9] = test system: OVCAR-4 ovarian
[10] = test system: UO-31 renal
[11] = test system: HCT-116 colon
[12] = test system: SK-MEL-2 melanoma
[13] = test system: NCI-H522 lung
[14] = test system: SK-MEL-5 melanoma
[15] = test system: HT29 colon
[16] = test system: SNB-75 CNS
[17] = test system: A498 renal
[18] = test system: HCC-2998 colon
[19] = test system: UACC-62 melanoma
[20] = test system: LOX IMVI melanoma
[21] = test system: NCI-H460 lung
[22] = test system: NCI-H23 lung
[23] = test system: SF-268 CNS
[24] = test system: KM12 colon
[25] = test system: K-562 leukemia
[26] = test system: ACHN renal
[27] = test system: MCF7 breast
[28] = test system: CCRF-CEM leukemia
[29] = test system: CAKI-1 renal
[30] = test system: HCT-15 colon
[31] = test system: UACC-257 melanoma
[32] = test system: SNB-19 CNS
[33] = test system: MOLT-4 leukemia
[34] = test system: DU-145 prostate
[35] = test system: MDA-N
[36] = test system: NCI-H226 lung
[37] = test system: BT-549 breast
[38] = test system: SW-620 colon
[39] = test system: PC-3 prostate
[40] = test system: OVCAR-3 ovarian
[41] = test system: U251 CNS
[42] = test system: HL-60(TB) leukemia
[43] = test system: SN12C renal
[44] = test system: NCI/ADR-RES ovarian
[45] = test system: SF-539 CNS
[46] = test system: T-47D breast
[47] = test system: OVCAR-8 ovarian
[48] = test system: COLO 205 colon
[49] = test system: MALME-3M melanoma
[50] = test system: SF-295 CNS
[51] = test system: 786-0 renal
[52] = test system: EKVX NSCLC
[53] = test system: M14 melanoma
[54] = test system: A549 NSCLC
[55] = test system: RPMI-8226 leukemia
[56] = test system: MDA-MB-231 breast
[57] = test system: SK-MEL-28 melanoma
[58] = test system: HOP-62 NSCLC
[59] = test system: HOP-92 NSCLC

Clc1cc2c(c(CSC3=NCN(CC4CC4)CN3)c1)OCOC2
TGI [1]: > 100 µM
TGI [2]: > 100 µM
TGI [3]: 36.9 µM
TGI [4]: 67.1 µM
TGI [5]: 74.3 µM
TGI [6]: 40.8 µM
TGI [7]: 48.9 µM
TGI [8]: 42.2 µM
TGI [9]: > 100 µM
TGI [10]: 37.1 µM
TGI [11]: 42.8 µM
TGI [12]: 35.4 µM
TGI [13]: 30.1 µM
TGI [14]: 32.2 µM
TGI [15]: 63.1 µM
TGI [16]: 39.6 µM
TGI [17]: 58.2 µM
TGI [18]: 28.4 µM
TGI [19]: 35.3 µM
TGI [20]: > 100 µM
TGI [21]: 39.6 µM
TGI [22]: 39.3 µM
TGI [23]: 98.3 µM
TGI [24]: > 100 µM
TGI [25]: > 100 µM
TGI [26]: 45.6 µM
TGI [27]: 93.8 µM
TGI [28]: 27.2 µM
TGI [29]: > 100 µM
TGI [30]: > 100 µM
TGI [31]: 33.1 µM
TGI [32]: > 100 µM
TGI [33]: 64 µM
TGI [34]: > 100 µM
TGI [35]: 38.6 µM
TGI [36]: 48.9 µM
TGI [37]: 51.5 µM
TGI [38]: 65.1 µM
TGI [39]: 65.8 µM
TGI [40]: > 100 µM
TGI [41]: 53.1 µM
TGI [42]: 33.7 µM
TGI [43]: > 100 µM
TGI [44]: 72.9 µM
TGI [45]: 43.4 µM
TGI [46]: 62.2 µM
TGI [47]: > 100 µM
TGI [48]: 28.4 µM
TGI [49]: 34.2 µM
TGI [50]: > 100 µM
TGI [51]: 52.2 µM
TGI [52]: 53.4 µM
TGI [53]: 27.9 µM
TGI [54]: 77.6 µM
TGI [55]: 38.2 µM
TGI [56]: 48 µM
TGI [57]: 38.3 µM
TGI [58]: 86.7 µM
TGI [59]: > 100 µM

Reference: PubChem BioAssay (NCI)
